Source: ChEMBL document CHEMBL3124744, “4-Functionalized 1,3-diarylpyrazoles bearing benzenesulfonamide moiety as selective potent inhibitors of the tumor associated carbonic anhydrase isoforms IX and XII” (Eur J Med Chem, 2014)

target: Carbonic anhydrase 12 (Homo sapiens, UniProt O43570)
Sequence (O43570 whole entry): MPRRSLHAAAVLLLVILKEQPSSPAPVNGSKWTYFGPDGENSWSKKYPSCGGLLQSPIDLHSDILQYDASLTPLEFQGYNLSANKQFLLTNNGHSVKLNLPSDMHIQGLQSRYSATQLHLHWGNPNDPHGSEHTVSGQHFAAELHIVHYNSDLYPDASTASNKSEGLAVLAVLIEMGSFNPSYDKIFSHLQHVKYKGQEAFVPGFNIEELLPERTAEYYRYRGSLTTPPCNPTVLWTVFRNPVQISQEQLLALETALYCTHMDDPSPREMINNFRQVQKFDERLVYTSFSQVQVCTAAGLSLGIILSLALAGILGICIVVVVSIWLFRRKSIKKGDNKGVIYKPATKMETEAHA
Description: Inhibition of human carbonic anhydrase 12-mediated CO2 hydration preincubated for 10 mins by stopped-flow assay

Q: For COC(=O)c1cn(-c2ccc(S(N)(=O)=O)cc2)nc1-c1ccc(Br)cc1, which Ki is on record?
A: 43.7 nM

target: Carbonic anhydrase 9 (Homo sapiens, UniProt Q16790)
Description: Inhibition of human carbonic anhydrase 9-mediated CO2 hydration preincubated for 10 mins by stopped-flow assay

Q: How did the Ki turn out when COC(=O)c1cn(-c2ccc(S(N)(=O)=O)cc2)nc1-c1ccc([N+](=O)[O-])cc1 was run?
A: 5.2 nM

Q: How did the Ki turn out when COC(=O)c1cn(-c2ccc(S(N)(=O)=O)cc2)nc1-c1ccc(Cl)cc1 was run?
A: 17.1 nM

Q: With NC(=O)c1cn(-c2ccc(S(N)(=O)=O)cc2)nc1-c1cccs1 as the compound, how does the Ki read?
A: 2.1 nM

Q: Which Ki does the source give for NC(=O)c1cn(-c2ccc(S(N)(=O)=O)cc2)nc1-c1ccc([N+](=O)[O-])cc1 here?
A: 49 nM

Q: Which Ki does the source give for NC(=O)c1cn(-c2ccc(S(N)(=O)=O)cc2)nc1-c1ccc(F)cc1 here?
A: 2.3 nM

Q: For NC(=O)c1cn(-c2ccc(S(N)(=O)=O)cc2)nc1-c1ccc(Cl)cc1, which Ki is on record?
A: 5.2 nM
